Experiment: xn = mol fraction of the nth substance listed

c1ccc2c(c1)CCCC2 + CCCCCCCCCC
viscosity [mPa·s]
Settings | 293.15 K | 298.15 K | 303.15 K | 308.15 K | 313.15 K | 318.15 K | 323.15 K
100 kPa, x1 = 0.0986 | 0.954 | 0.886 | 0.827 | 0.774 | 0.727 | 0.685 | 0.647
100 kPa, x1 = 0.2025 | 1.008 | 0.936 | 0.871 | 0.814 | 0.763 | 0.718 | 0.678
100 kPa, x1 = 0.2995 | 1.065 | 0.987 | 0.919 | 0.859 | 0.805 | 0.757 | 0.713
100 kPa, x1 = 0.3994 | 1.133 | 1.043 | 0.973 | 0.908 | 0.85 | 0.798 | 0.752
100 kPa, x1 = 0.5005 | 1.221 | 1.127 | 1.045 | 0.973 | 0.909 | 0.852 | 0.802
100 kPa, x1 = 0.5989 | 1.329 | 1.224 | 1.132 | 1.047 | 0.977 | 0.916 | 0.859
100 kPa, x1 = 0.6999 | 1.468 | 1.347 | 1.243 | 1.151 | 1.07 | 0.999 | 0.936
100 kPa, x1 = 0.7987 | 1.644 | 1.495 | 1.382 | 1.276 | 1.182 | 1.101 | 1.028
100 kPa, x1 = 0.9002 | 1.878 | 1.708 | 1.564 | 1.437 | 1.326 | 1.23 | 1.147
101 kPa, x2 = 0.1001 | 1.873 | 1.703 | 1.56 | – | 1.328 | – | –
101 kPa, x2 = 0.2044 | 1.629 | 1.486 | 1.368 | – | 1.175 | – | –
101 kPa, x2 = 0.2961 | 1.471 | 1.349 | 1.245 | – | 1.073 | – | –
101 kPa, x2 = 0.3964 | 1.345 | 1.238 | 1.148 | – | 0.995 | – | –
101 kPa, x2 = 0.4994 | 1.226 | 1.134 | 1.053 | – | 0.917 | – | –
101 kPa, x2 = 0.6017 | 1.143 | 1.06 | 0.986 | – | 0.862 | – | –
101 kPa, x2 = 0.6964 | 1.071 | 0.993 | 0.925 | – | 0.809 | – | –
101 kPa, x2 = 0.7971 | 1.015 | 0.942 | 0.878 | – | 0.77 | – | –
101 kPa, x2 = 0.8894 | 0.968 | 0.9 | 0.838 | – | 0.737 | – | –

Reference: the CheMixHub viscosity set
